Assay results: ChEMBL document CHEMBL1137452, “Synthesis of disulfide esters of dialkylaminocarbothioic acid as potent, non-detergent spermicidal agents” (Bioorg Med Chem, 2007)
In brackets after ≈: the same amount, converted by molar mass. Activity calls are given as the source filed them. No cut-off for these calls is given here.

What was measured:
Homo sapiens [1] = species on record: Homo sapiens; assay: Spermicidal activity against human spermatozoa at 1.0% w/v; type: functional
Candida albicans [2] = assay: Antifungal activity against Candida albicans MTCC 183 after 48 hrs by broth micro dilution technique; type: functional, organism-based; conditions: MTCC 183, 48 h
Candida albicans [3] = assay: Antifungal activity against Candida albicans ATCC 10231 after 48 hrs by broth micro dilution technique; type: functional, organism-based; conditions: ATCC 10231, 48 h
Homo sapiens [4] = species on record: Homo sapiens; assay: Spermicidal activity against human spermatozoa; type: functional
Candida albicans [5] = assay: Antifungal activity against Candida albicans ATCC 60193 after 48 hrs by broth micro dilution technique; type: functional, organism-based; conditions: ATCC 60193, 48 h
Candida albicans [6] = assay: Antifungal activity against Candida albicans after 48 hrs by broth micro dilution technique; type: functional, organism-based
Pichia kudriavzevii = assay: Antifungal activity against Candida krusei ATCC 6258 after 48 hrs by broth micro dilution technique; type: functional, organism-based; conditions: ATCC 6258, 48 h
Candida parapsilosis = assay: Antifungal activity against Candida parapsilosis ATCC 22019 after 48 hrs by broth micro dilution technique; type: functional, organism-based; conditions: Lodderomyces parapsilosis, ATCC 22019, 48 h
Candida albicans [7] = assay: Antifungal activity against Candida albicans ATCC 10453 after 48 hrs by broth micro dilution technique; type: functional, organism-based; conditions: ATCC 10453, 48 h
Candida albicans [8] = assay: Antifungal activity against Candida albicans MTCC 1346 after 48 hrs by broth micro dilution technique; type: functional, organism-based; conditions: MTCC 1346, 48 h
Candida albicans [9] = assay: Antifungal activity against Candida albicans ATCC 66027 after 48 hrs by broth micro dilution technique; type: functional, organism-based; conditions: ATCC 66027, 48 h

SMILES	Activity (Homo sapiens [1])	IC50 (Candida albicans [2]) [µg/mL]	MIC (Candida albicans [2]) [µg/mL]	IC50 (Candida albicans [3]) [µg/mL]	MIC (Candida albicans [3]) [µg/mL]	MEC (Homo sapiens [4]) [%w/v]	IC50 (Candida albicans [5]) [µg/mL]	MIC (Candida albicans [5]) [µg/mL]	IC50 (Candida albicans [6]) [µg/mL]	MIC (Candida albicans [6]) [µg/mL]	IC50 (Pichia kudriavzevii) [µg/mL]	MIC (Pichia kudriavzevii) [µg/mL]	IC50 (Candida parapsilosis) [µg/mL]	MIC (Candida parapsilosis) [µg/mL]	IC50 (Candida albicans [7]) [µg/mL]	MIC (Candida albicans [7]) [µg/mL]	IC50 (Candida albicans [8]) [µg/mL]	MIC (Candida albicans [8]) [µg/mL]	IC50 (Candida albicans [9]) [µg/mL]	MIC (Candida albicans [9]) [µg/mL]
CCN(CC)C(=O)SCC(CN1CCOCC1)SSC(CSC(=O)N(CC)CC)CN1CCOCC1 (configuration not stated)	inactive																			
O=C(SCC(CN1CCCCC1)SSC(CSC(=O)N1CCCC1)CN1CCCCC1)N1CCCC1 (racemic)		42 (≈ 73.1 µM)	> 50	> 50	> 50	0.05	> 50	> 50	> 50	> 50	49 (≈ 85.2 µM)	50 (≈ 87 µM)	48 (≈ 83.5 µM)	50 (≈ 87 µM)	> 50	> 50	> 50	> 50	> 50	> 50
CN1CCN(CC(CSC(=O)N2CCCCC2)SSC(CSC(=O)N2CCCCC2)CN2CCN(C)CC2)CC1 (racemic)		> 50	50 (≈ 79 µM)	> 50	50 (≈ 79 µM)	0.05	43 (≈ 67.9 µM)	> 50	47 (≈ 74.2 µM)	50 (≈ 79 µM)	35 (≈ 55.3 µM)	50 (≈ 79 µM)	40 (≈ 63.2 µM)	50 (≈ 79 µM)	46 (≈ 72.7 µM)	> 50	> 50	50 (≈ 79 µM)	40 (≈ 63.2 µM)	> 50
O=C(SCC(CN1CCCCC1)SSC(CSC(=O)N1CCCCC1)CN1CCCCC1)N1CCCCC1 (racemic)		> 50	> 50	> 50	> 50	0.05	> 50	> 50	> 50	> 50	> 50	> 50	> 50	> 50	> 50	> 50	> 50	> 50	> 50	> 50
O=C(SCC(CN1CCCC1)SSC(CSC(=O)N1CCCC1)CN1CCCC1)N1CCCC1 (racemic)		29 (≈ 53 µM)	50 (≈ 91.4 µM)	> 50	> 50	0.002	> 50	> 50	43 (≈ 78.6 µM)	> 50	33 (≈ 60.3 µM)	50 (≈ 91.4 µM)	31 (≈ 56.7 µM)	50 (≈ 91.4 µM)	> 50	> 50	> 50	> 50	42 (≈ 76.8 µM)	> 50
O=C(SCC(CN1CCCC1)SSC(CSC(=O)N1CCCCC1)CN1CCCC1)N1CCCCC1 (racemic)		32 (≈ 55.7 µM)	50 (≈ 87 µM)	48 (≈ 83.5 µM)	50 (≈ 87 µM)	0.002	41 (≈ 71.3 µM)	> 50	47 (≈ 81.7 µM)	> 50	30 (≈ 52.2 µM)	50 (≈ 87 µM)	48 (≈ 83.5 µM)	50 (≈ 87 µM)	> 50	> 50	48 (≈ 83.5 µM)	50 (≈ 87 µM)	43 (≈ 74.8 µM)	> 50
O=C(SCC(CN1C=CC=CC=C1)SSC(CSC(=O)N1CCCC1)CN1C=CC=CC=C1)N1CCCC1 (racemic)		26 (≈ 44 µM)	50 (≈ 84.6 µM)	> 50	> 50	0.05	42 (≈ 71.1 µM)	50 (≈ 84.6 µM)	50 (≈ 84.6 µM)	> 50	32 (≈ 54.2 µM)	50 (≈ 84.6 µM)	42 (≈ 71.1 µM)	50 (≈ 84.6 µM)	> 50	> 50	50 (≈ 84.6 µM)	50 (≈ 84.6 µM)	> 50	> 50
O=C(SCC(CN1C=CC=CC=C1)SSC(CSC(=O)N1CCOCC1)CN1C=CC=CC=C1)N1CCOCC1 (racemic)		25 (≈ 40.1 µM)	50 (≈ 80.3 µM)	> 50	> 50	0.05	42 (≈ 67.4 µM)	50 (≈ 80.3 µM)	> 50	> 50	32 (≈ 51.4 µM)	50 (≈ 80.3 µM)	39 (≈ 62.6 µM)	50 (≈ 80.3 µM)	> 50	> 50	35 (≈ 56.2 µM)	50 (≈ 80.3 µM)	> 50	> 50
CCN(C)C(=O)SCC(CN1CCCCC1)SSC(CSC(=O)N(C)CC)CN1CCCCC1 (racemic)	inactive																			
CCN(C)C(=O)SCC(CN1CCN(C)CC1)SSC(CSC(=O)N(C)CC)CN1CCN(C)CC1 (racemic)	inactive																			
CN1CCN(CC(CSC(=O)N2CCCC2)SSC(CSC(=O)N2CCCC2)CN2CCN(C)CC2)CC1 (racemic)						1														
O=C(SCC(CN1CCCC1)SSC(CSC(=O)N1CCOCC1)CN1CCCC1)N1CCOCC1 (racemic)						0.1														
O=C(SCC(CN1CCCCC1)SSC(CSC(=O)N1CCOCC1)CN1CCCCC1)N1CCOCC1 (racemic)						0.5														
O=C(SCC(CN1CCOCC1)SSC(CSC(=O)N1CCCC1)CN1CCOCC1)N1CCCC1 (racemic)	inactive																			
O=C(SCC(CN1CCOCC1)SSC(CSC(=O)N1CCCCC1)CN1CCOCC1)N1CCCCC1 (racemic)						0.1														
O=C(SCC(CN1CCOCC1)SSC(CSC(=O)N1CCOCC1)CN1CCOCC1)N1CCOCC1 (racemic)	inactive																			
CCN(CC)C(=O)SCC(CN1CCCCC1)SSC(CSC(=O)N(CC)CC)CN1CCCCC1 (racemic; 26)	inactive																			
CCN(CC)C(=O)SCC(CN1CCCCC1)SSC(CSC(=O)N(CC)CC)CN1CCCCC1 (racemic; 29)	inactive																			
OC(Cn1cncn1)(Cn1cncn1)c1ccc(F)cc1F [FLUCONAZOLE]		0.26 (≈ 0.849 µM)	0.5 (≈ 1.63 µM)	0.35 (≈ 1.14 µM)	1 (≈ 3.27 µM)	0.1	0.1 (≈ 0.327 µM)	0.25 (≈ 0.816 µM)	0.13 (≈ 0.424 µM)	0.5 (≈ 1.63 µM)	1.38 (≈ 4.51 µM)	4 (≈ 13.1 µM)	0.21 (≈ 0.686 µM)	1 (≈ 3.27 µM)	0.63 (≈ 2.06 µM)	1 (≈ 3.27 µM)	0.58 (≈ 1.89 µM)	2 (≈ 6.53 µM)	0.18 (≈ 0.588 µM)	0.25 (≈ 0.816 µM)
CCCCCCCCCc1ccc(OCCOCCOCCOCCOCCOCCOCCOCCOCCO)cc1 [NONOXYNOL 9]		41 (≈ 66.5 µM)	> 50	> 50	> 50	0.05	> 50	> 50	46 (≈ 74.6 µM)	> 50	48 (≈ 77.8 µM)	50 (≈ 81.1 µM)	47 (≈ 76.2 µM)	50 (≈ 81.1 µM)	> 50	> 50	> 50	> 50	> 50	> 50
